Data published in patent US9656988B2 (Pharmacyclics LLC, priority 2013, dated 2017).
Where two headings read alike, the source gives them in different places.

Molecular target: BTK (Homo sapiens (Human), UniProt Q06187)
Assay: Btk in vitro inhibitory activity (one of Method A TR-FRET, Method B electrophoretic mobility shift, Method C radiometric filter binding)
Type: biochemical
[1] = determined using one of the methods of Example 355a, 355b and 355c, read-out: BTK IC50

BTK, sequence (Q06187 whole entry): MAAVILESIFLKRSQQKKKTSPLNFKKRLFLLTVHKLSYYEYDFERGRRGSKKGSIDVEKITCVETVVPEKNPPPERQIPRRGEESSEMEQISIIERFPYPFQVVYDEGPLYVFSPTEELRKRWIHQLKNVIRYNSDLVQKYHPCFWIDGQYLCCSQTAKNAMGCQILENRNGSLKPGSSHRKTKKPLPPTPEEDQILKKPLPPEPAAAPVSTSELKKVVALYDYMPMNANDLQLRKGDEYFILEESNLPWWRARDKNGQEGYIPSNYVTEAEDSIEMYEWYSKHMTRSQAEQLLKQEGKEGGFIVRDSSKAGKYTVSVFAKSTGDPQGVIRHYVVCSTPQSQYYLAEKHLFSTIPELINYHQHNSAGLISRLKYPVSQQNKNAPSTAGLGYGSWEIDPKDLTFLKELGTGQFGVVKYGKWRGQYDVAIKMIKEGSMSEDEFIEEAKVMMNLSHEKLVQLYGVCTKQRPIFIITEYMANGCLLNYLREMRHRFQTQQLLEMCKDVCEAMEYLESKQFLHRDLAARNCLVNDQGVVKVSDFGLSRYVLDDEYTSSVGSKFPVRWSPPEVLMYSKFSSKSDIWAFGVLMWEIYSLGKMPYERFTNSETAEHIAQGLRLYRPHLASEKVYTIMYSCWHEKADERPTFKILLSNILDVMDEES

Compound	IC50 [1]	IC50 (read-out: Btk (IC50))	IC50 (Btk (IC50))	IC50
NC(=O)c1ncc(N2CCC[C@@H](NC(=O)c3ccc(F)cc3)C2)nc1Nc1ccc(C2CCN(C3CCCC3)CC2)cc1 [Example 320, (R)-3-(4-(1-cyclopentylpiperidin-4-yl)phenylamino)-5-(3-(4-fluorobenzamido)piperidin-1-yl)pyrazine-2-carboxamide]	< 10 nM	< 10 nM		
NC(=O)c1nnc(N2CCC[C@@H](NC(=O)c3ccc(C4CC4)cc3)C2)nc1Nc1ccc(C(=O)N2CCOCC2)cc1 [Example 11, (R)-3-(3-(4-cyclopropylbenzamido)piperidin-1-yl)-5-(4-(morpholine-4-carbonyl)phenylamino)-1,2,4-triazine-6-carboxamide]	< 10 nM			
COc1ccc(C(=O)N[C@@H]2CCCN(c3cnc(C(N)=O)c(Nc4ccc(C5CCOCC5)cc4)n3)C2)cc1 [Example 122, (R)-5-(3-(4-methoxybenzamido)piperidin-1-yl)-3-(4-(tetrahydro-2H-pyran-4-yl)phenylamino)pyrazine-2-carboxamide]	< 10 nM			
NC(=O)c1nnc(N2CCC[C@@H](NC(=O)c3ccccn3)C2)nc1Nc1ccc(C(=O)N2CCOCC2)cc1 [Example 12, (R)-5-(4-(morpholine-4-carbonyl)phenylamino)-3-(3-(picolinamido)piperidin-1-yl)-1,2,4-triazine-6-carboxamide]	< 10 nM			
NC(=O)c1ncc(N2CCC[C@@H](N3Cc4ccccc4C3=O)C2)nc1Nc1ccc(C2CCN(C3CCCC3)CC2)cc1 [Example 307, (R)-3-(4-(1-cyclopentylpiperidin-4-yl)phenylamino)-5-(3-(1-oxoisoindolin-2-yl)piperidin-1-yl)pyrazine-2-carboxamide]	< 10 nM	< 10 nM		
CCC(=O)N1CCC(c2ccc(Nc3nc(N4CCC[C@@H](NC(=O)c5ccc(OC)cc5)C4)cnc3C(N)=O)cc2)CC1 [Example 140, (R)-5-(3-(4-methoxybenzamido)piperidin-1-yl)-3-(4-(1-propionylpiperidin-4-yl)phenylamino)pyrazine-2-carboxamide]	< 10 nM			
CC(C)(C)c1ccc(C(=O)N[C@@H]2CCCN(c3cnc(C(N)=O)c(Nc4ccc(C(=O)N5CCOCC5)cc4)c3)C2)cc1 [Example 76, (R)-5-(3-(4-tert-butylbenzamido)piperidin-1-yl)-3-(4-(morpholine-4-carbonyl)phenylamino)picolinamide]	100 to 1000 nM			
NC(=O)c1ncc(N2CCC[C@@H](NC(=O)C3CC3)C2)nc1Nc1ccc(C2CCN(C3CCCC3)CC2)cc1 [Example 299, (R)-3-(4-(1-cyclopentylpiperidin-4-yl)phenylamino)-5-(3-(cyclopropanecarboxamido)piperidin-1-yl)pyrazine-2-carboxamide]	< 10 nM	< 10 nM		
CN(C)C(=O)N[C@@H]1CCCN(c2cnc(C(N)=O)c(Nc3ccc(C4(C)CCN(C5CCCC5)CC4)cc3)n2)C1 [Example 222, (R)-3-(4-(1-cyclopentyl-4-methylpiperidin-4-yl)phenylamino)-5-(3-(3,3-dimethylureido)piperidin-1-yl)pyrazine-2-carboxamide]	< 10 nM	< 10 nM		
COc1ccc(C(=O)N[C@@H]2CCCN(c3cnc(C(N)=O)c(Nc4ccc(N5CCCCC5)cc4)n3)C2)cc1 [Example 164, (R)-5-(3-(4-methoxybenzamido)piperidin-1-yl)-3-(4-(piperidin-1-yl)phenylamino)pyrazine-2-carboxamide]	< 10 nM			
CS(=O)(=O)c1ccc(Nc2nc(N3CCC[C@@H](NC(=O)N4CCCCC4)C3)cnc2C(N)=O)cc1 [Example 145, (R)-3-(4-(methylsulfonyl)phenylamino)-5-(3-(piperidine-1-carboxamido)piperidin-1-yl)pyrazine-2-carboxamide]	< 10 nM	< 10 nM		
CN(C(=O)N[C@@H]1CCCN(c2cnc(C(N)=O)c(Nc3ccc(F)cc3)n2)C1)c1cc(Cl)cc(C(F)(F)F)c1 [Example 322, (R)-5-(3-(3-(3-chloro-5-(trifluoromethyl)phenyl)-3-methylureido)piperidin-1-yl)-3-(4-fluorophenylamino)pyrazine-2-carboxamide]	100 to 1000 nM	100 to 1000 nM		
CN(C)C(=O)N[C@@H]1CCCN(c2cnc(C(N)=O)c(Nc3ccc(C4(CN)CCCC4)cc3)n2)C1 [Example 204, (R)-3-(4-(1-(aminomethyl)cyclopentyl)phenylamino)-5-(3-(3,3-dimethylureido)piperidin-1-yl)pyrazine-2-carboxamide]	10 to 100 nM	10 to 100 nM		
CCN(C)C(=O)N[C@@H]1CCCN(c2cnc(C(N)=O)c(Nc3ccc(C4CCN(C5CCCC5)CC4)cc3)n2)C1 [Example 297, (R)-3-(4-(1-cyclopentylpiperidin-4-yl)phenylamino)-5-(3-(3-ethyl-3-methylureido)piperidin-1-yl)pyrazine-2-carboxamide]	< 10 nM	< 10 nM		
COc1ccc(C(=O)N[C@@H]2CCCN(c3cnc(C(N)=O)c(Nc4ccc(C5CCN(C)CC5)cc4)n3)C2)cc1 [Example 131, (R)-5-(3-(4-methoxybenzamido)piperidin-1-yl)-3-(4-(1-methylpiperidin-4-yl)phenylamino)pyrazine-2-carboxamide]	< 10 nM	< 10 nM		
CN(C)C(=O)N[C@@H]1CCCN(c2cnc(C(N)=O)c(Nc3cnn(C4CCN(C(=O)C5CC5)CC4)c3)n2)C1 [Example 219, (R)-3-(1-(1-(cyclopropanecarbonyl)piperidin-4-yl)-1H-pyrazol-4-ylamino)-5-(3-(3,3-dimethylureido)piperidin-1-yl)pyrazine-2-carboxamide]	10 to 100 nM		10 to 100 nM	
COc1ccc(C(=O)N[C@@H]2CCCN(c3cnc(C(N)=O)c(Nc4ccc(N5CCCCC5=O)cc4)n3)C2)cc1 [Example 128, (R)-5-(3-(4-methoxybenzamido)piperidin-1-yl)-3-(4-(2-oxopiperidin-1-yl)phenylamino)pyrazine-2-carboxamide]	< 10 nM	< 10 nM		
CC(C)C(=O)N[C@@H]1CCCN(c2nnc(C(N)=O)c(Nc3ccc(C(=O)N4CCOCC4)cc3)n2)C1 [Example 24, (R)-3-(3-isobutyramidopiperidin-1-yl)-5-(4-(morpholine-4-carbonyl)phenylamino)-1,2,4-triazine-6-carboxamide]	10 to 100 nM			
CN1CCC(c2ccc(Nc3nc(N4CCC[C@@H](NC(=O)N5CCCCC5)C4)cnc3C(N)=O)cc2)CC1 [Example 147, (R)-3-(4-(1-methylpiperidin-4-yl)phenylamino)-5-(3-(piperidine-1-carboxamido)piperidin-1-yl)pyrazine-2-carboxamide]	< 10 nM	< 10 nM		
CN(C/C=C/C(=O)N1CCC[C@@H](Nc2nnc(C(N)=O)c(Nc3ccc(C(=O)N4CCOCC4)cc3)n2)C1)C1CC1 [Example 67, (R,E)-3-(1-(4-(cyclopropyl(methyl)amino)but-2-enoyl)piperidin-3-ylamino)-5-(4-(morpholine-4-carbonyl)phenylamino)-1,2,4-triazine-6-carboxamide]	< 10 nM			
NC(=O)c1nnc(N2CCC[C@@H](NC(=O)c3ccc4c(c3)nnn4C3CC3)C2)nc1Nc1ccc(C(=O)N2CCOCC2)cc1 [Example 102, (R)—N-(1-(6-carbamoyl-5-(4-(morpholine-4-carbonyl)phenylamino)-1,2,4-triazin-3-yl)piperidin-3-yl)-1-cyclopropyl-1H-benzo[d][1,2,3]triazole-5-carboxamide]	< 10 nM	< 10 nM		
CN(C(=O)N[C@@H]1CCCN(c2cnc(C(N)=O)c(NC3CC3)n2)C1)c1ccccc1 [Example 350, (R)-3-(cyclopropylamino)-5-(3-(3-methyl-3-phenylureido)piperidin-1-yl)pyrazine-2-carboxamide]	1000 to 10000 nM			
CCOc1ccc(C(=O)N[C@@H]2CCCN(c3nnc(C(N)=O)c(Nc4ccc(C(=N)N5CCCC5)cc4)n3)C2)cc1 [Example 343, (R)-3-(3-(4-ethoxybenzamido)piperidin-1-yl)-5-(4-(imino(pyrrolidin-1-yl)methyl)phenylamino)-1,2,4-triazine-6-carboxamide]	< 10 nM	< 10 nM		
CN(C/C=C/C(=O)N1CCC[C@@H](Nc2nnc(C(N)=O)c(Nc3ccc(S(C)(=O)=O)cc3)n2)C1)C1CC1 [Example 107, (R,E)-3-(1-(4-(cyclopropyl(methyl)amino)but-2-enoyl)piperidin-3-ylamino)-5-(4-(methylsulfonyl)phenylamino)-1,2,4-triazine-6-carboxamide]	< 10 nM			
CN(C)C(=O)N(C)[C@@H]1CCCN(c2cnc(C(N)=O)c(Nc3ccc(N4CCS(=O)(=O)CC4)cc3)n2)C1 [Example 229, (R)-3-(4-(1,1-dioxothiomorpholino)phenylamino)-5-(3-(1,3,3-trimethylureido)piperidin-1-yl)pyrazine-2-carboxamide]	10 to 100 nM			10 to 100 nM
NC(=O)c1ncc(N2CC[C@H]3CCN[C@H]3C2)nc1Nc1ccc(C2CCN(C3CCCC3)CC2)cc1 (racemic) [Example 291]	100 to 1000 nM			
CN1CCC(c2ccc(Nc3nc(N4CCC[C@@H](NC(=O)c5ccc(F)cc5)C4)cnc3C(N)=O)cc2)CC1 [Example 168, (R)-5-(3-(4-fluorobenzamido)piperidin-1-yl)-3-(4-(1-methylpiperidin-4-yl)phenylamino)pyrazine-2-carboxamide]	< 10 nM	< 10 nM		
NC(=O)c1nnc(N2CCC[C@@H](NC(=O)c3ccc4ncccc4c3)C2)nc1Nc1ccc(C(=O)N2CCOCC2)cc1 [Example 85, (R)—N-(1-(6-carbamoyl-5-(4-(morpholine-4-carbonyl)phenylamino)-1,2,4-triazin-3-yl)piperidin-3-yl)quinoline-6-carboxamide]	10 to 100 nM		10 to 100 nM	
NC(=O)c1nnc(N2CCC[C@@H](NC(=O)C3CCN(C4CC4)CC3)C2)nc1Nc1ccc(C(=O)N2CCOCC2)cc1 [Example 32, (R)-3-(3-(1-cyclopropylpiperidine-4-carboxamido)piperidin-1-yl)-5-(4-(morpholine-4-carbonyl)phenylamino)-1,2,4-triazine-6-carboxamide]	10 to 100 nM			
